Measurements taken from PMC7216583 (Parasites & Vectors, 2020).
Where a name gives a salt, the structure may show the parent alone. Read-outs that look alike come from different tables or passages of the source.

Columns and labels:
c-Kit [1] = tested on: c-Kit; parameters: method as in S-inhibitor catalog; conditions: vendor brief description; ref S-inhibitor catalog; cited from earlier work
[2] = tested on: Toxoplasma gondii RH-2F tachyzoites; experiment: microbe, parasite or virus in culture; conditions: 72 h
HDAC = tested on: HDAC; parameters: method as in S-inhibitor catalog; conditions: vendor brief description; ref S-inhibitor catalog; cited from earlier work
ErbB1 = tested on: ErbB1; parameters: method as in S-inhibitor catalog; conditions: vendor brief description; ref S-inhibitor catalog; cited from earlier work
ErbB2 = tested on: ErbB2; parameters: method as in S-inhibitor catalog; conditions: vendor brief description; ref S-inhibitor catalog; cited from earlier work
CDK1 = tested on: CDK1; parameters: method as in S-inhibitor catalog; conditions: vendor brief description; ref S-inhibitor catalog; cited from earlier work
CDK9 = tested on: CDK9; parameters: method as in S-inhibitor catalog; conditions: vendor brief description; ref S-inhibitor catalog; cited from earlier work
CYP17 = tested on: CYP17; parameters: method as in S-inhibitor catalog; conditions: vendor brief description; ref S-inhibitor catalog; cited from earlier work
in vitro = conditions: human, Host viability (%) mean
VEGFR2 [3] = tested on: VEGFR2; parameters: method as in S-inhibitor catalog; conditions: vendor brief description; ref S-inhibitor catalog; cited from earlier work
VEGFR2 [4] = tested on: VEGFR2; parameters: method as in S-inhibitor; conditions: ref S-inhibitor; cited from earlier work
c-Met [5] = tested on: c-Met; parameters: method as in S-inhibitor; conditions: ref S-inhibitor; cited from earlier work
[6] = molecular target: histamine 1 (H1) receptor; parameters: method as in vendor brief description; conditions: ref vendor brief description; cited from earlier work
H3-receptor = molecular target: H3-receptor; parameters: method as in vendor brief description; conditions: ref vendor brief description, cited from earlier work
endothelin receptor-A = molecular target: endothelin receptor-A; parameters: method as in vendor brief description; conditions: ref vendor brief description; cited from earlier work
[7] = molecular target: N-methyl-D-aspartate (NMDA) receptor; parameters: method as in vendor brief description; conditions: ref vendor brief description; cited from earlier work
mTOR = molecular target: mTOR; parameters: method as in vendor brief description; conditions: ref vendor brief description; cited from earlier work
TRPA1 channel = tested on: TRPA1 channel; parameters: method as in vendor brief description; conditions: ref vendor brief description, cited from earlier work
[8] = molecular target: epidermal growth factor receptor (EGFR); parameters: method as in vendor brief description; conditions: ref vendor brief description; read-out: IC50 EGFR; cited from earlier work
Abl = tested on: Abl; parameters: method as in S-inhibitor; conditions: ref S-inhibitor; read-out: IC50, Abl; cited from earlier work
Aurora A = tested on: Aurora A; parameters: method as in S-inhibitor; conditions: ref S-inhibitor; cited from earlier work
HSP90 = tested on: HSP90; parameters: method as in S-inhibitor catalog; conditions: vendor brief description; ref S-inhibitor catalog; cited from earlier work
Kir2.1 = tested on: Kir2.1; parameters: method as in vendor brief description; conditions: ref vendor brief description, cited from earlier work
c-Kit [9] = tested on: c-Kit; parameters: method as in library vendor description; conditions: ref library vendor description; cited from earlier work
PDGFR = conditions: read-out: IC50 PDGFR; ref library vendor description; cited from earlier work
c-Met [10] = tested on: c-Met; parameters: method as in S-inhibitor catalog; conditions: vendor brief description; ref S-inhibitor catalog; cited from earlier work
Bcl-2 = molecular target: Bcl-2; parameters: method as in library vendor description; conditions: ref library vendor description; cited from earlier work
EGFR = tested on: EGFR; parameters: method as in library vendor description; conditions: ref library vendor description; cited from earlier work
Smoothened (Smo) = tested on: Smoothened (Smo); parameters: method as in S-inhibitor catalog; conditions: vendor brief description; ref S-inhibitor catalog; cited from earlier work
VEGFR1 = tested on: VEGFR1; parameters: method as in library vendor description; conditions: ref library vendor description; cited from earlier work
CDK = tested on: CDK; parameters: method as in S-inhibitor catalog; conditions: vendor brief description; ref S-inhibitor catalog; cited from earlier work
5-HT2B = tested on: 5-HT2B; parameters: method as in S-inhibitor catalog; conditions: vendor brief description; ref S-inhibitor catalog; cited from earlier work
JAK1 = tested on: JAK1; parameters: method as in vendor brief description; conditions: ref vendor brief description; cited from earlier work
hTRPV1 = tested on: hTRPV1; parameters: method as in S-inhibitor catalog; conditions: in HEK293 cells; vendor brief description; ref S-inhibitor catalog; cited from earlier work
ATR = tested on: ATR; parameters: method as in vendor brief description; conditions: ref vendor brief description; cited from earlier work
5-HT3A = molecular target: 5-HT3A; parameters: method as in vendor brief description; conditions: ref vendor brief description; cited from earlier work
CXCR4 = tested on: CXCR4; parameters: method as in vendor brief description; conditions: ref vendor brief description; cited from earlier work
FGFR1 = conditions: read-out: IC50, FGFR1; vendor brief description; ref S-inhibitor catalog; cited from earlier work
Akt1 = tested on: Akt1; parameters: method as in vendor brief description; conditions: ref vendor brief description; cited from earlier work
[11] = tested on: Toxoplasma gondii RH-2F tachyzoites; conditions: preliminary screen of compound library; mean
[12] = read-out: Parasite inhibition (%) mean, preliminary screen of compound library, mean
[13] = read-out: Parasite inhibition (%) mean, preliminary screen, mean

Compound: CN1CCN(c2ccc3nc(-c4c(N)c5c(F)cccc5[nH]c4=O)[nH]c3c2)CC1
- IC50 (c-Kit [1]): 2 nM

Compound: CC(C)[C@H](C(=O)Nc1ccc(C(=O)NO)cc1)c1ccccc1 [AR-42 (HDAC-42)]
- inhibition of growth at 5 µM [2, 12]: 61%
- IC50 (HDAC): 30 nM

Compound: C[C@@H]1COC(Nc2ccc3ncnc(Nc4ccc(OCc5nccs5)c(Cl)c4)c3c2)=N1 [ARRY334543]
- inhibition of growth at 5 µM [2, 12]: 12.4%
- IC50 (ErbB1): 7 nM
- IC50 (ErbB2): 2 nM

Compound: Cc1ncc(-c2ccnc(Nc3ccc(S(C)(=O)=O)cc3)n2)n1C(C)C [AZD5438]
- inhibition of growth at 5 µM [2, 12]: 6.8%
- IC50 (CDK1): 16 nM
- IC50 (CDK9): 20 nM

Compound: CC(=O)O[C@H]1CC[C@@]2(C)C(=CC[C@H]3[C@H]2CC[C@]2(C)C(c4cccnc4)=CC[C@@H]32)C1 [Abiraterone Acetate (CB7630)]
- inhibition of growth at 5 µM [2, 12]: 0.7%
- IC50 (CYP17): 72 nM

Compound: N#CC1(c2ccc(NC(=O)c3cccnc3NCc3ccncc3)cc2)CCCC1 [Apatinib (YN968D1)]
- inhibition of growth at 5 µM [2, 12]: 77.6%
- viability at 72 h (in vitro): 63.8%
- IC50 (VEGFR2 [3]): 1 nM

Compound: Nc1nccc(Oc2ccc(NC(=O)c3c[nH]cc(-c4ccc(F)cc4)c3=O)cc2F)c1Cl [BMS 794833]
- inhibition of growth at 5 µM [2, 13]: 88.4%
- IC50 (VEGFR2 [4]): 15 nM
- viability at 72 h (in vitro): 70.6%
- IC50 (c-Met [5]): 1.7 nM

Compound: O=C(O)CCCN1CCC(O[C@@H](c2ccc(Cl)cc2)c2ccccn2)CC1.O=S(=O)(O)c1ccccc1 [Bepotastine Besilate]
- inhibition of growth at 5 µM [2, 12]: 50.1%
- pIC50 histamine 1 (H1) receptor [6]: Bepotastine is a non-sedating, selective antagonist of histamine 1 (H1) receptor with pIC50 of 5.7.

Compound: CNCCc1ccccn1 [Betahistine 2HCl]
- inhibition of growth at 5 µM [2, 12]: 3.2%
- IC50 (H3-receptor; read-out: IC50 histamine H3 receptors): 1900 nM

Compound: COc1ccccc1Oc1c(NS(=O)(=O)c2ccc(C(C)(C)C)cc2)nc(-c2ncccn2)nc1OCCO [Bosentan Hydrate]
- inhibition of growth at 5 µM [2, 12]: 5.3%

Compound: O=C(c1ccc(OCCCc2cnc[nH]2)cc1)C1CC1 [Ciproxifan]
- inhibition of growth at 5 µM [2, 12]: 0.5%
- IC50 (H3-receptor; read-out: IC50 H3-receptor): 9.2 nM

Compound: C[C@]12N[C@H](Cc3ccccc31)c1ccccc12 [Dizocilpine (MK 801)]
- inhibition of growth at 5 µM [2, 12]: 0.4%
- Ki [7]: 30.5 nM

Compound: CCNC(=O)Nc1ccc(-c2nc3c(c(N4CCOC[C@@H]4C)n2)CCN(C2COC2)C3)cc1 [GDC-0349]
- inhibition of growth at 5 µM [2, 12]: -13.8%
- Ki (mTOR): 3.8 nM

Compound: C[C@]12CC[C@H](O)CC1=CCC1C2CC[C@]2(C)C(n3cnc4ccccc43)=CCC12 (some centres unmarked) [Galeterone (TOK-001)]
- inhibition of growth at 5 µM [2, 12]: 0.4%
- IC50 (CYP17): 300 nM

Compound: CC(C)c1ccc(NC(=O)Cn2cnc3c2c(=O)n(C)c(=O)n3C)cc1 [HC-030031]
- inhibition of growth at 5 µM [2, 12]: 1.6%
- IC50 (TRPA1 channel; AITC-evoked, read-out: IC50 AITC-evoked calcium influx): 6200 nM
- IC50 (TRPA1 channel; formalin-evoked, read-out: IC50 formalin-evoked calcium influx): 5300 nM

Compound: CC(C)n1nc(-c2ccc3oc(N)nc3c2)c2c(N)ncnc21 [INK 128 (MLN0128)]
- inhibition of growth at 5 µM [2, 12]: 27.8%
- IC50 (mTOR): 1 nM

Compound: C#Cc1cccc(Nc2ncnc3cc4c(cc23)OCCOCCOCCO4)c1 [Icotinib]
- inhibition of growth at 5 µM [2, 12]: 13.6%
- IC50 [8]: 5 nM

Compound: O=C(c1ccc(/C=C/c2n[nH]c3ccccc23)cc1)N1CCNCC1 [KW 2449]
- IC50 (Abl): 14 nM
- inhibition of growth at 5 µM [2, 13]: 70.2%
- viability at 72 h (in vitro): 55.6%
- IC50 (Aurora A): 48 nM

Compound: CCc1c(O)cc(O)c(C(=O)c2ccc(OCCN3CCOCC3)c(OC)c2)c1CC(=O)N(CCOC)CCOC [KW-2478]
- inhibition of growth at 5 µM [2, 12]: 7.8%
- IC50 (HSP90): 3.8 nM

Compound: CN(C)c1ccc(C(=O)NCCCCCCC(=O)NO)cc1 [M344]
- inhibition of growth at 5 µM [2, 12]: 44.6%
- IC50 (HDAC): 100 nM

Compound: COc1ccc(CNCc2cccc3ccccc23)cc1 [ML133 HCl]
- inhibition of growth at 5 µM [2, 12]: 0.7%
- IC50 (Kir2.1; pH 7.4): 1800 nM
- IC50 (Kir2.1; pH 8.5): 290 nM

Compound: CC1(C)CNc2cc(NC(=O)c3cccnc3NCc3ccncc3)ccc21 [Motesanib Diphosphate (AMG-706)]
- inhibition of growth at 5 µM [2, 13]: -36.6%
- IC50 (c-Kit [9]): 8 nM
- IC50 (PDGFR): 84 nM

Compound: Cn1cc(-c2ccc3ncc(Cc4ccc5ncccc5c4)n3n2)cn1 [NVP-BVU972]
- inhibition of growth at 5 µM [2, 12]: 38.8%
- IC50 (c-Met [10]): 14 nM

Compound: COC1=CC(c2cc3ccccc3[nH]2)=N/C1=C\c1[nH]c(C)cc1C [Obatoclax mesylate (GX15-070)]
- inhibition of growth at 5 µM [2, 13]: 52.7%
- Ki (Bcl-2): 220 nM

Compound: COc1cc2ncnc(Nc3cccc(Br)c3)c2cc1OC [PD153035 HCl]
- inhibition of growth at 5 µM [2, 13]: -9.7%

Compound: Cc1cnc(-c2cc(N3CCN(C(=O)CCS(C)(=O)=O)CC3)ncc2Cl)c(C)c1 [PF-5274857]
- inhibition of growth at 5 µM [2, 12]: -0.8%
- IC50 (Smoothened (Smo)): 5.8 nM
- Ki (Smoothened (Smo)): 4.6 nM

Compound: Cc1ccc(Nc2nccc(N(C)c3ccc4c(C)n(C)nc4c3)n2)cc1S(N)(=O)=O [Pazopanib HCl]
- inhibition of growth at 5 µM [2, 13]: -2.6%
- IC50 (PDGFR): 84 nM
- IC50 (VEGFR1): 10 nM

Compound: COc1ccc(F)c(F)c1C(=O)c1cnc(NC2CCN(S(C)(=O)=O)CC2)nc1N [R547]
- inhibition of growth at 5 µM [2, 12]: 11.7%
- IC50 (CDK): 80 nM
- Ki (CDK): 1 to 3 nM

Compound: CC(C)c1cc(-c2ccc(F)c3ccccc23)nc(N)n1 [RS-127445]
- inhibition of growth at 5 µM [2, 12]: -0.7%
- pIC50, 5-HT2B (5-HT2B): 10.4
- pKi, 5-HT2B (5-HT2B): 9.5

Compound: N#CC[C@@H](C1CCCC1)n1cc(-c2ncnc3[nH]ccc23)cn1 [S-Ruxolitinib]
- inhibition of growth at 5 µM [2, 12]: 10.7%

Compound: O=C(Nc1ccccc1Br)N[C@@H]1CCN(c2ccc(C(F)(F)F)cn2)C1 [SB705498]
- inhibition of growth at 5 µM [2, 12]: 0.6%
- pIC50, hTRPV1 (hTRPV1): 7.1
- pKi, hTRPV1 (hTRPV1): 7.6

Compound: CS(=O)(=O)c1ccc(-c2cnc(N)c(C(=O)Nc3ccccc3)n2)cc1 [VE-821]
- inhibition of growth at 5 µM [2, 12]: -7.9%
- IC50 (ATR): 26 nM
- Ki (ATR): 13 nM

Compound: CN1CCN(c2nc3ccccc3nc2Cl)CC1 [VUF 10166]
- inhibition of growth at 5 µM [2, 12]: 0.4%
- Ki (5-HT3A): 0.04 nM

Compound: c1ccc(NCc2ccc(CNc3ccccn3)cc2)nc1 [WZ 811]
- inhibition of growth at 5 µM [2, 12]: -5.7%
- EC50 (CXCR4): 0.3 nM

Compound: AZD4547
- IC50 (FGFR1): 0.2 nM

Compound: AZD5363
- IC50 (Akt1): 3 nM
- Parasite inhibition (%) mean [11]: 33.4%
